One block for each compound: values may come before it. Residues, ends and D or L forms follow the SMILES beside them. *: point of attachment. Phenylacetyl(2,3,4,5,6-F5) = O=C(Cc1c(F)c(F)c(F)c(F)c1F)*
Key:
[1] = Gel formation / sol-gel transition by vial inverting method; assay type: physicochemical; conditions: for CGC: Table 5, critical gelation concentration; for Time at room temperature to convert again into a sol state: after gelation at 37° C., regardless of the concentration
Experimental: In a glass bottle of 2 mL (diameter 10 mm) with a screw cap, different compounds with different concentrations were weighed to perform the gelation. A sodium hydroxide solution was added to the suspension in order to adjust the pH value, and vortex and treatment of the sonication were alternately used until a clear compound solution was obtained. Polyethylene glycols having different molecular weights such as 300 g/mol, 600 g/mol, 1000 g/mol, 1500 g/mol, 2000 g/mol, and 3000 g/mol, etc. were also dissolved in the deionized water in order to obtain the polyethylene glycol solution, and the desired concentrations were further controlled. After the polyethylene glycols were completely dissolved, the polyethylene glycol solution was then mixed with the compound solution in order to obtain a compound/PEG solution. By adding hydrochloric acid dropwise, the pH value of the compound/PEG solution was adjusted to a neutral pH value of 7.0-7.4.
Gel formation was determined by a vial inverting method. After the equilibrium at room temperature, a glass bottle with the sample was immersed into a water bath of 37° C. in equilibrium or in an incubator of 37° C. for 30 minutes. After flipping the glass bottle, the sol-gel transition was determined. If the sample without floating was observed within 1 minute, the sample was considered as a gel. […] Each of the temperature data point represented an average temperature of three measurements. At a physiologically relevant temperature of 37° C., the gelation time as a function of the concentration of the block copolymer was measured in the water bath of 37° C.

[2] = Cell viability test (MTT assay); assay type: cell-based; conditions: human, hMSC (3A6) cells, read-out: Survival rate
Experimental: The biocompatibilities of different peptide molecules were measured by a cell viability test (MTT assay). hMSC (3A6) cells were seeded in a 24-well plate with a density of 50,000 cells in each well, and the hMSC (3A6) cells were cultured for 24 hours, wherein the 24-well plate comprises a culture medium (DMEM) of 0.5 mL, and the DMEM comprises 10% FBS and 1% penicillin. When seeded in the cells, each of the wells was added with the compounds of different concentrations (0.5 and 5 wt %). After 24 and 48 hours, the original culture medium was replaced by a fresh culture medium, wherein the fresh culture medium was supplemented with a MTT reagent of 0.5 mL (4 mg/mL). After another 4 hours, the culture medium containing the MTT reagent was removed, and DMSO (0.5 mL per well) was then added in order to dissolve formazan crystals. Each of the 24-well plate was transferred to a 96-well plate. The optical density of the cells was measured at 595 nm by a light absorption plate reader (Sunrise, DV990/BV4 GDV Programmable MPT reader). The cells without treated by the compounds were used as the control group. The cell viability percentage, that is, viability (%), of the cells was calculated according to the following Formula (2).
[formula] wherein ODsample represented the optical density of the sample, and ODcontrol represented the optical density of the control group.
In some embodiments of the invention, a cell viability test (MTT assay) was used for a colorimetric assay to analyze the biocompatibilities of the samples. In detail, a 0.5 wt % 5F-FF, a 0.5 wt %: 4.5 wt % 5F-FF/PEG1500, a 0.5 wt %: 4.5 wt % 5F-FF/PEG2000, and a 0.5 wt %: 4.5 wt % 5F-FF/PEG3000 (hydrogels under neutral conditions), and the immortalized human mesenchymal stem cells (hMSC, 3a6) was selected for testing, wherein the results were shown in FIG. 11. FIG. 11 was a diagram showing cell viability of cells treated with 0.5 wt % 5F-FF, 0.5 wt %: 4.5 wt % 5F-FF/PEG1500, 0.5 wt %: 4.5 wt % 5F-FF/PEG2000 and 0.5 wt %: 4.5 wt % 5F-FF/PEG3000 according to some embodiments of the invention.

[3] = Hydrogel degradation in PBS at 37° C.; assay type: physicochemical; conditions: on the seventh day, PBS pH 7.4, 37° C.
Experimental: Hydrogel degradation was performed in a phosphate buffered solution (PBS) at 37° C. with 5% of CO2. In a 4 mL glass bottle, various 0.3 mL hydrogels were prepared, and 3 mL PBS was added to each of the glass bottles having the hydrogel. At some specific data points, the PBS was removed. The hydrogel was freeze-dried by the freeze-drying method, and the hydrogel degradation rate was calculated according to the following Formula (1),
[formula] wherein W (%) represented the hydrogel degradation rate, Wi represented the initial weight of the hydrogel at day 0, and Wd represented the dry weight of the hydrogel at day of a specific number. Cell Viability Test
In some embodiments of the invention, accordingly, with the remaining conditions the same, the stability of the thermosensitive hydrogel was tested by immersing the samples into a PBS with the pH value of 7.4 at 37° C., and the result thereof was shown in FIG. 10. FIG. 10 was a diagram showing specific degradation percentage over time of the 5F-FF, 5F-FF/PEG300, 5F-FF/PEG600, 5F-FF/PEG1000, 5F-FF/PEG1500, 5F-FF/PEG2000, and 5F-FF/PEG3000 alone in the PBS according to some embodiments of the invention.

CGC ([1]; pH 7.0): 1 wt % | State at 37° C. ([1]; Table 6, 1F-FF with PEG of different molecular weights, pH 7.0): Gel | Detailed description of the sample ([1]; Table 6, after cooling at 0° C.): Still hydrosol | State at 0° C. (Surrounded by ice cubes) ([1]; Table 6, gel-sol behavior, pH 7.0): Gel
Structure (SMILES): O=C(Cc1ccc(F)cc1)N[C@@H](Cc1ccccc1)C(=O)N[C@@H](Cc1ccccc1)C(=O)O [Sample 1F-FF]

CGC ([1]; pH 7.0): 0.5 wt %
Structure (SMILES): O=C(Cc1c(F)cc(F)cc1F)N[C@@H](Cc1ccccc1)C(=O)N[C@@H](Cc1ccccc1)C(=O)O [Sample 3F-FF]

Time Tsol-gel ([1]; 5F-FF with PEG of different molecular weights, thermosensitive gelation at 37° C., pH 7.0): Gel | CGC (critical gelation concentration) ([1]; 5F-FF, Table 2): 0.5 wt % | Degradation percentage [3]: 35.75%
Structure (SMILES): O=C(Cc1c(F)c(F)c(F)c(F)c1F)N[C@@H](Cc1ccccc1)C(=O)N[C@@H](Cc1ccccc1)C(=O)O [Sample 5F-FF, 2,3,4,5,6-fluorobenzyl-diphenylalanine]
viability at 24 h, 0.5 wt % ([2]; day 1, hMSC (3A6), hydrogels under neutral conditions): 84% | viability at 48 h, 0.5 wt % ([2]; day 2, hMSC (3A6)): 88.6% | viability at 72 h, 0.5 wt % ([2]; day 3, hMSC (3A6)): 68.2% | viability at 120 h, 0.5 wt % ([2]; day 5, hMSC (3A6)): 73.3% | viability at 168 h, 0.5 wt % ([2]; day 7, hMSC (3A6)): 84%

Time at room temperature to convert again into a sol state [1]: 20 min
Structure (SMILES): CC(NC(=O)C(Cc1cnc[nH]1)NC(=O)CNC(=O)C(Cc1ccccc1)NC(=O)C(Cc1ccccc1)NC(=O)Cc1c(F)c(F)c(F)c(F)c1F)C(=O)NC(C(=O)NC(CC(=O)O)C(=O)O)C(C)C (stereo not drawn) [Sample 5F-FFGHAVD] ({Phenylacetyl(2,3,4,5,6-F5)}-FFGHAVD-OH; configuration not given here)

Time at room temperature to convert again into a sol state [1]: 20 min
Structure (SMILES): N=C(N)NCCCC(NC(=O)C(Cc1ccccc1)NC(=O)C(Cc1ccccc1)NC(=O)Cc1c(F)c(F)c(F)c(F)c1F)C(=O)NCC(=O)NC(CC(=O)O)C(=O)O (stereo not drawn) [Sample 5F-FFRGD] ({Phenylacetyl(2,3,4,5,6-F5)}-FFRGD-OH; configuration not given here)

— patent publication US11690935B2, “Thermosensitive peptide hydrogel” (NATIONAL CHIAO TUNG UNIVERSITY, priority 2020, dated 2023)
